From patent US20260345619A1 (Principia Biopharma Inc., priority 2023, published 2026)

Test: Pre-bronchodilator FEV1 and percent predicted FEV1 by spirometry, change from baseline
Format: in vivo, human
Details: 400 mg BID, Week 12
Protocol: Spirometry is a standard test to measure patients' lung function.
The primary endpoint was the proportion of patients with LOAC. The key secondary endpoint for the study was change in pre-bronchodilator FEV1 from baseline at EOT.
Reversibility is defined as an increase of the absolute FEV1 after administration of bronchodilator and is measured by spirometry as postbronchodilator increase in FEV1 in percent of the prebronchodilator FEV1. After spirometry for measuring prebronchodilator FEV1, participants were to receive 2-4 puffs of albuterol/salbutamol or levalbuterol/levosalbutamol from a primed MDI. The postbronchodilator spirometry may have been repeated several times within 30 minutes after administration of bronchodilator. Alternatively, and only if it was consistent with usual office practice (to be documented), reversibility may have been performed using inhalation of nebulized albuterol/salbutamol or levalbuterol/levosalbutamol.
Secondary endpoints included pre-bronchodilator FEV1 change from baseline at EOT, ACQ-5 score change from baseline, and AQLQ score change from baseline. Other secondary and exploratory endpoints are described in Table 2.

[1] = >2 exacerbations within 2 years

Structure (SMILES): CC(C)(C=C(C#N)C(=O)N1CCC[C@@H](n2nc(-c3ccc(Oc4ccccc4)cc3F)c3c(N)ncnc32)C1)N1CCN(C2COC2)CC1 (mixture of isomers) [rilzabrutinib, (R)-2-[3-[4-amino-3-(2-fluoro-4-phenoxy-phenyl)pyrazolo[3,4-d]pyrimidin-1-yl]piperidine-1-carbonyl]-4-methyl-4-[4-(oxetan-3-yl)piperazin-1-yl]pent-2-enenitrile]
- Pre-bronchodilator FEV1 change from baseline, LS Mean (1 exacerbation within 2 years): -0.08 L
- Pre-bronchodilator FEV1 change from baseline, LS Mean Diff vs. placebo (1 exacerbation within 2 years): -0.05 L
- Pre-bronchodilator FEV1 change from baseline, Mean (1 exacerbation within 2 years): 0.05 L
- Pre-bronchodilator FEV1 change from baseline, LS Mean (2 exacerbations within 2 years): -0.01 L
- Pre-bronchodilator FEV1 change from baseline, LS Mean Diff vs. placebo (2 exacerbations within 2 years): 0.10 L
- Pre-bronchodilator FEV1 change from baseline, Mean (2 exacerbations within 2 years): -0.06 L
- Pre-bronchodilator FEV1 change from baseline, LS Mean [1]: -0.36 L
- Pre-bronchodilator FEV1 change from baseline, LS Mean Diff vs. placebo [1]: -0.16 L
- Pre-bronchodilator FEV1 change from baseline, Mean [1]: -0.15 L
- Pre-bronchodilator FEV1 change from baseline, Mean (APAC): -0.09 L
- Pre-bronchodilator FEV1 change from baseline, Mean (Eastern Europe): -0.21 L
- Pre-bronchodilator FEV1 change from baseline, LS Mean (Latin America): -0.07 L
- Pre-bronchodilator FEV1 change from baseline, LS Mean Diff vs. placebo (Latin America): -0.01 L
- Pre-bronchodilator FEV1 change from baseline, Mean (Latin America): -0.05 L
- Pre-bronchodilator FEV1 change from baseline, Mean (Western Countries): 0.24 L
- Pre-bronchodilator FEV1 change from baseline, LS Mean (age <45 years): -0.13 L
- Pre-bronchodilator FEV1 change from baseline, LS Mean Diff vs. placebo (age <45 years): -0.13 L
- Pre-bronchodilator FEV1 change from baseline, Mean (age <45 years): -0.05 L
- Pre-bronchodilator FEV1 change from baseline, LS Mean (age ≥45 years): -0.14 L
- Pre-bronchodilator FEV1 change from baseline, LS Mean Diff vs. placebo (age ≥45 years): 0.02 L
- Pre-bronchodilator FEV1 change from baseline, Mean (age ≥45 years): -0.03 L
- Pre-bronchodilator FEV1 change from baseline, LS Mean (asthma onset age <12 years): 0.12 L
- Pre-bronchodilator FEV1 change from baseline, LS Mean Diff vs. placebo (asthma onset age <12 years): 0.18 L
- Pre-bronchodilator FEV1 change from baseline, Mean (asthma onset age <12 years): 0.00 L
- Pre-bronchodilator FEV1 change from baseline, LS Mean (asthma onset age <18 years): -0.00 L
- Pre-bronchodilator FEV1 change from baseline, LS Mean Diff vs. placebo (asthma onset age <18 years): 0.08 L
- Pre-bronchodilator FEV1 change from baseline, Mean (asthma onset age <18 years): 0.04 L
- Pre-bronchodilator FEV1 change from baseline, Mean (asthma onset age ≥12-<18 years): 0.12 L
- Pre-bronchodilator FEV1 change from baseline, LS Mean (asthma onset age ≥18-<40 years): -0.14 L
- Pre-bronchodilator FEV1 change from baseline, LS Mean Diff vs. placebo (asthma onset age ≥18-<40 years): 0.00 L
- Pre-bronchodilator FEV1 change from baseline, Mean (asthma onset age ≥18-<40 years): -0.08 L
- Pre-bronchodilator FEV1 change from baseline, LS Mean (asthma onset age ≥18 years): -0.17 L
- Pre-bronchodilator FEV1 change from baseline, LS Mean Diff vs. placebo (asthma onset age ≥18 years): -0.03 L
- Pre-bronchodilator FEV1 change from baseline, Mean (asthma onset age ≥18 years): -0.11 L
- Pre-bronchodilator FEV1 change from baseline, LS Mean (asthma onset age ≥40 years): 0.00 L
- Pre-bronchodilator FEV1 change from baseline, LS Mean Diff vs. placebo (asthma onset age ≥40 years): 0.07 L
- Pre-bronchodilator FEV1 change from baseline, Mean (asthma onset age ≥40 years): -0.31 L
- Pre-bronchodilator FEV1 change from baseline, LS Mean (atopic medical conditions: No): -0.15 L
- Pre-bronchodilator FEV1 change from baseline, LS Mean Diff vs. placebo (atopic medical conditions: No): 0.10 L
- Pre-bronchodilator FEV1 change from baseline, Mean (atopic medical conditions: No): -0.16 L
- Pre-bronchodilator FEV1 change from baseline, LS Mean (atopic medical conditions: Yes): 0.02 L
- Pre-bronchodilator FEV1 change from baseline, LS Mean Diff vs. placebo (atopic medical conditions: Yes): -0.03 L
- Pre-bronchodilator FEV1 change from baseline, Mean (atopic medical conditions: Yes): 0.03 L
- Pre-bronchodilator FEV1 change from baseline, LS Mean (background ICS/LABA dose High): -0.11 L
- Pre-bronchodilator FEV1 change from baseline, LS Mean Diff vs. placebo (background ICS/LABA dose High): 0.02 L
- Pre-bronchodilator FEV1 change from baseline, Mean (background ICS/LABA dose High): -0.05 L
- Pre-bronchodilator FEV1 change from baseline, Mean (background ICS/LABA dose Medium): 0.04 L
- Pre-bronchodilator FEV1 change from baseline, LS Mean (baseline ACQ-5 >2): -0.12 L
- Pre-bronchodilator FEV1 change from baseline, LS Mean Diff vs. placebo (baseline ACQ-5 >2): -0.04 L
- Pre-bronchodilator FEV1 change from baseline, Mean (baseline ACQ-5 >2): -0.09 L
- Pre-bronchodilator FEV1 change from baseline, LS Mean (baseline ACQ-5 ≤2): -0.12 L
- Pre-bronchodilator FEV1 change from baseline, LS Mean Diff vs. placebo (baseline ACQ-5 ≤2): 0.04 L
- Pre-bronchodilator FEV1 change from baseline, Mean (baseline ACQ-5 ≤2): 0.00 L
- Pre-bronchodilator FEV1 change from baseline, LS Mean (baseline BMI <25 kg/m^2): -0.09 L
- Pre-bronchodilator FEV1 change from baseline, LS Mean Diff vs. placebo (baseline BMI <25 kg/m^2): 0.15 L
- Pre-bronchodilator FEV1 change from baseline, Mean (baseline BMI <25 kg/m^2): 0.02 L
- Pre-bronchodilator FEV1 change from baseline, LS Mean (baseline BMI ≥25-<30 kg/m^2): -0.06 L
- Pre-bronchodilator FEV1 change from baseline, LS Mean Diff vs. placebo (baseline BMI ≥25-<30 kg/m^2): 0.06 L
- Pre-bronchodilator FEV1 change from baseline, Mean (baseline BMI ≥25-<30 kg/m^2): -0.00 L
